The text below walks through data of patent publication US7166296B2, “Pharmaceutical formulations and ligands for use therein; mimetics for UEA-1” (Sarlan, Ltd., priority 2001, dated 2007).

Assay [1] has as its system UEA-1 binding sites on Caco-2 cell membrane preparations. Put plainly: Single tier competition assay: inhibition of biotinylated UEA-1 binding, compound and biotinylated UEA-1 incubated together. Also on record: species or system human. The following applies: Table 8, galloyl constructs; for IC50: read-out: IC 50 (uM) 1st tier (converted). In a few lines: (§1)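 Plates coated with Caco-2 membrane preparation (10 μg/ml, carbonate buffer pH 9.6) and BSA-blocked. Single tier: compound and biotinylated UEA-1 incubated together overnight. Two tier: compound incubated overnight with membranes first, biotinylated UEA-1 added next. Bound UEA-1 detected by streptavidin-HRP/OPD, OD490.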

Assay [2] has the same test system. Description: Two tier competition assay: compound incubated alone with membranes, biotinylated UEA-1 added in next step. On the set-up: species or system human. The following applies: Table 8, galloyl constructs; for IC50: read-out: IC 50 (uM) 2nd tier. In short, it runs like this:
as §1

≈ marks a conversion by molar mass, not a printed value. Non-standard residues stand in square brackets, D forms with d. Residues, ends and D or L forms follow the SMILES beside them. *: point of attachment. Galloyl = O=C(c1cc(O)c(O)c(O)c1)*

As to `CC(=O)N[C@H](CCCCNC(=O)c1cc(O)c(O)c(O)c1)C(=O)N[C@H](CCCCNC(=O)c1cc(O)c(O)c(O)c1)C(=O)N[C@H](CCCCNC(=O)c1cc(O)c(O)c(O)c1)C(=O)N[C@H](CCCCNC(=O)c1cc(O)c(O)c(O)c1)C(=O)N[C@H](CCCCNC(=O)c1cc(O)c(O)c(O)c1)C(N)=O` [MSI 30 #8] (Ac-[dK](Galloyl)[dK](Galloyl)[dK](Galloyl)[dK](Galloyl)[dK](Galloyl)-NH2), in assay [1], the “IC 50 (ug/ml) 1st tier” value came to 70 µg/mL (≈ 47.9 µM) and the IC50 is 48 µM. In assay [2], the “IC 50 (ug/ml) 2nd tier” value is 15 µg/mL (≈ 10.3 µM) and the IC50 is 10 µM.

Regarding `NC(=O)[C@@H](CCCCNC(=O)c1cc(O)c(O)c(O)c1)NC(=O)[C@@H](CCCCNC(=O)c1cc(O)c(O)c(O)c1)NC(=O)[C@@H](CCCCNC(=O)c1cc(O)c(O)c(O)c1)NC(=O)[C@@H](CCCCNC(=O)c1cc(O)c(O)c(O)c1)NC(=O)[C@@H](CCCCNC(=O)c1cc(O)c(O)c(O)c1)NC(=O)c1cc(O)c(O)c(O)c1` [MSI 30 #10] (Galloyl-[dK](Galloyl)[dK](Galloyl)[dK](Galloyl)[dK](Galloyl)[dK](Galloyl)-NH2), in assay [1], the “IC 50 (ug/ml) 1st tier” value was 23 µg/mL (≈ 14.6 µM) and the IC50 is 14 µM. Also, in assay [2], the “IC 50 (ug/ml) 2nd tier” value was 5 µg/mL (≈ 3.18 µM) and the IC50 was 3 µM.

As to `CC(=O)N[C@H](CCCCNC(=O)c1cc(O)c(O)c(O)c1)C(=O)N[C@H](CCCCNC(=O)c1cc(O)c(O)c(O)c1)C(=O)N[C@H](CCCCNC(=O)c1cc(O)c(O)c(O)c1)C(=O)N[C@H](CCCCNC(=O)c1cc(O)c(O)c(O)c1)C(=O)N[C@H](CCCCNC(=O)c1cc(O)c(O)c(O)c1)C(=O)N[C@H](CCCCNC(=O)c1cc(O)c(O)c(O)c1)C(N)=O` [MSI 30 #11], in assay [1], the “IC 50 (ug/ml) 1st tier” value came out at 13 µg/mL (≈ 7.47 µM) and the IC50 was 7 µM. For the same compound, in assay [2], the “IC 50 (ug/ml) 2nd tier” value amounted to 2 µg/mL (≈ 1.15 µM) and the IC50 is 1 µM.

Turning to `CC(=O)N[C@H](CCCCNC(=O)c1cc(O)c(O)c(O)c1)C(=O)N[C@H](CCCCNC(=O)c1cc(O)c(O)c(O)c1)C(=O)N[C@H](CCCCNC(=O)c1cc(O)c(O)c(O)c1)C(=O)N[C@H](CCCCNC(=O)c1cc(O)c(O)c(O)c1)C(=O)N[C@H](CCCCNC(=O)c1cc(O)c(O)c(O)c1)C(=O)N[C@H](CCCCNC(=O)c1cc(O)c(O)c(O)c1)C(=O)N[C@H](CCCCNC(=O)c1cc(O)c(O)c(O)c1)C(N)=O` [MSI 30 #14] (Ac-[dK](Galloyl)[dK](Galloyl)[dK](Galloyl)[dK](Galloyl)[dK](Galloyl)[dK](Galloyl)[dK](Galloyl)-NH2), in assay [1], the “IC 50 (ug/ml) 1st tier” value was 17 µg/mL (≈ 8.41 µM) and the IC50 is 8 µM. Besides, in assay [2], the “IC 50 (ug/ml) 2nd tier” value turned out to be 9 µg/mL (≈ 4.45 µM) and the IC50 was found to be 4 µM.

As for `NC(=O)[C@@H](CCCCNC(=O)c1cc(O)c(O)c(O)c1)NC(=O)[C@@H](CCCCNC(=O)c1cc(O)c(O)c(O)c1)NC(=O)[C@@H](CCCCNC(=O)c1cc(O)c(O)c(O)c1)NC(=O)[C@@H](CCCCNC(=O)c1cc(O)c(O)c(O)c1)NC(=O)[C@@H](CCCCNC(=O)c1cc(O)c(O)c(O)c1)NC(=O)[C@@H](CCCCNC(=O)c1cc(O)c(O)c(O)c1)NC(=O)[C@@H](CCCCNC(=O)c1cc(O)c(O)c(O)c1)NC(=O)c1cc(O)c(O)c(O)c1` [MSI 30 #16] (Galloyl-[dK](Galloyl)[dK](Galloyl)[dK](Galloyl)[dK](Galloyl)[dK](Galloyl)[dK](Galloyl)[dK](Galloyl)-NH2), in assay [1], the “IC 50 (ug/ml) 1st tier” value came to 19 µg/mL (≈ 8.92 µM) and the IC50 is 9 µM. Also, in assay [2], the “IC 50 (ug/ml) 2nd tier” value was 8 µg/mL (≈ 3.75 µM) and the IC50 was determined as 4 µM.

Consider `NC(=O)C(CCCCNC(=O)C(CCCCNC(=O)C(CCCCNC(=O)c1cc(O)c(O)c(O)c1)NC(=O)c1cc(O)c(O)c(O)c1)NC(=O)C(CCCCNC(=O)c1cc(O)c(O)c(O)c1)NC(=O)c1cc(O)c(O)c(O)c1)NC(=O)C(CCCCNC(=O)C(CCCCNC(=O)c1cc(O)c(O)c(O)c1)NC(=O)c1cc(O)c(O)c(O)c1)NC(=O)C(CCCCNC(=O)c1cc(O)c(O)c(O)c1)NC(=O)c1cc(O)c(O)c(O)c1` (stereo not drawn) [MSI 30 #17], for which, in assay [1], the “IC 50 (ug/ml) 1st tier” value is 1st tier = 52nd tier = 5 ug/ml and the IC50 was 2 µM. Also, in assay [2], the “IC 50 (ug/ml) 2nd tier” value is recorded as 1st tier = 52nd tier = 5 ug/ml and the IC50 was determined as 2 µM.

Regarding `NC(=O)C(CNC(=O)C(CNC(=O)c1cc(O)c(O)c(O)c1)NC(=O)c1cc(O)c(O)c(O)c1)NC(=O)C(CNC(=O)c1cc(O)c(O)c(O)c1)NC(=O)c1cc(O)c(O)c(O)c1` (stereo not drawn) [MSI 34 1π5], in assay [1], the “IC 50 (ug/ml) 1st tier” value is 0.5 µg/mL (≈ 0.566 µM) and the IC50 was 0.5 µM. Moreover, in assay [2], the “IC 50 (ug/ml) 2nd tier” value was determined as 1 µg/mL (≈ 1.13 µM) and the IC50 was 1 µM.

As to `NC(=O)[C@H](CNC(=O)c1cc(O)c(O)c(O)c1)NC(=O)c1cc(O)c(O)c(O)c1` [MSI 34 #1], in assay [1], the “IC 50 (ug/ml) 1st tier” value came out at 1 µg/mL (≈ 2.45 µM) and the IC50 was 4 µM. In assay [2], the “IC 50 (ug/ml) 2nd tier” value was 0.8 µg/mL (≈ 1.96 µM) and the IC50 was 2 µM.

With `NC(=O)C(CCCNC(=O)c1cc(O)c(O)c(O)c1)NC(=O)c1cc(O)c(O)c(O)c1` (stereo not drawn) [MSI 34 #3], in assay [1], the “IC 50 (ug/ml) 1st tier” value turned out to be 2 µg/mL (≈ 4.59 µM) and the IC50 was 4 µM. Also, in assay [2], the “IC 50 (ug/ml) 2nd tier” value was 0.7 µg/mL (≈ 1.61 µM) and the IC50 is 2 µM.

For `NC(=O)C(CCNC(=O)C(CCNC(=O)c1cc(O)c(O)c(O)c1)NC(=O)c1cc(O)c(O)c(O)c1)NC(=O)C(CCNC(=O)c1cc(O)c(O)c(O)c1)NC(=O)c1cc(O)c(O)c(O)c1` (stereo not drawn) [MSI 34 #6], in assay [1], the “IC 50 (ug/ml) 1st tier” value was 0.6 µg/mL (≈ 0.648 µM) and the IC50 was 0.6 µM. In assay [2], the “IC 50 (ug/ml) 2nd tier” value worked out at 1 µg/mL (≈ 1.08 µM) and the IC50 was found to be 1 µM.

With `NC(=O)C(CCCNC(=O)C(CCCNC(=O)c1cc(O)c(O)c(O)c1)NC(=O)c1cc(O)c(O)c(O)c1)NC(=O)C(CCCNC(=O)c1cc(O)c(O)c(O)c1)NC(=O)c1cc(O)c(O)c(O)c1` (stereo not drawn) [MSI 34 #7], in assay [1], the “IC 50 (ug/ml) 1st tier” value is 0.9 µg/mL (≈ 0.93 µM) and the IC50 was 0.9 µM. For the same compound, in assay [2], the “IC 50 (ug/ml) 2nd tier” value worked out at 1 µg/mL (≈ 1.03 µM) and the IC50 amounted to 1 µM.

As to `NC(=O)C(Cc1ccc(NC(=O)C(Cc2ccc(NC(=O)c3cc(O)c(O)c(O)c3)cc2)NC(=O)c2cc(O)c(O)c(O)c2)cc1)NC(=O)C(Cc1ccc(NC(=O)c2cc(O)c(O)c(O)c2)cc1)NC(=O)c1cc(O)c(O)c(O)c1` (stereo not drawn) [MSI 34 #8], in assay [1], the “IC 50 (ug/ml) 1st tier” value came out at 4 µg/mL (≈ 3.6 µM) and the IC50 was 4 µM. Moreover, in assay [2], the “IC 50 (ug/ml) 2nd tier” value was determined as 3 µg/mL (≈ 2.7 µM) and the IC50 stood at 2 µM.

For `NC(=O)C(CNC(=O)c1cc(O)c(O)c(O)c1)NC(=O)C(CNC(=O)c1cc(O)c(O)c(O)c1)NC(=O)c1cc(O)c(O)c(O)c1` (stereo not drawn) [MSI 34 #9], in assay [1], the “IC 50 (ug/ml) 1st tier” value was 0.6 µg/mL (≈ 0.929 µM) and the IC50 is 0.9 µM. In assay [2], the “IC 50 (ug/ml) 2nd tier” value stood at 0.5 µg/mL (≈ 0.775 µM) and the IC50 was 0.8 µM.

With `NC(=O)C(CCNC(=O)c1cc(O)c(O)c(O)c1)NC(=O)C(CCNC(=O)c1cc(O)c(O)c(O)c1)NC(=O)c1cc(O)c(O)c(O)c1` (stereo not drawn) [MSI 34 #10], in assay [1], the “IC 50 (ug/ml) 1st tier” value was 0.6 µg/mL (≈ 0.891 µM) and the IC50 was 0.9 µM. In assay [2], the “IC 50 (ug/ml) 2nd tier” value stood at 0.7 µg/mL (≈ 1.04 µM) and the IC50 was found to be 1 µM.

In the case of `NC(=O)C(CCCNC(=O)c1cc(O)c(O)c(O)c1)NC(=O)C(CCCNC(=O)c1cc(O)c(O)c(O)c1)NC(=O)c1cc(O)c(O)c(O)c1` (stereo not drawn) [MSI 34 #11], in assay [1], the “IC 50 (ug/ml) 1st tier” value is 1 µg/mL (≈ 1.43 µM) and the IC50 is 2 µM. For the same compound, in assay [2], the “IC 50 (ug/ml) 2nd tier” value stood at 0.8 µg/mL (≈ 1.14 µM) and the IC50 was found to be 1 µM.
